From patent US20210299079A1, “MONOMETHYL FUMARATE-CARRIER CONJUGATES AND METHODS OF THEIR USE” (Flagship Pioneering Innovations V, Inc., priority 2018, published 2021)
Structures can show the parent of a compound that is named as a salt. One block for each molecule: values may come before it.

How the values were obtained:
[1] = Gastrointestinal (GI) Exposure to Monomethylfumarate (MMF) (Study 2); format: in vivo, CD-1 mice; details: mouse, samples of Study 1, single oral dose
Procedure: (§1) In order to measure propionate concentrations along the GI track, CD-1 mice were orally administered a single dose of deuterated sodium propionate, Compound 3 comprising deuterated propionate, or Compound 6 comprising deuterated propionate (Propionate-d3, Compound 3-d12, and Compound 6-d9, respectively; suspension, 1% (w/v) methyl cellulose in deionized water). The amounts of compound dosed were normalized to provide approximately equimolar amounts of […] (Propionate-d3 at 62 mg/kg, Compound 3-d12 at 110 mg/kg, and Compound 6-d9 at 91 mg/kg). […] Blood samples were collected in K2EDTA tubes and stored on wet ice no more than 30 min and then further processed to plasma. GI samples were placed into separate labeled, pre-weighted collection tubes and frozen before analysis. Brain samples were homogenized prior to analysis. Samples were subsequently worked up and analyzed by LC-MS/MS for deuterated propionate concentration. Propionate concentrations versus time for different tissues are depicted in FIGS. 4A-4H and 5A-5C.
Samples from Example 6, Study 1 were also analyzed by LC-MS/MS for monomethylfumarate concentrations. MMF concentrations versus time for different tissues are depicted in FIGS. 6A-6F.

[2] = Gastrointestinal (GI) Exposure to Propionate (Study 1); format: in vivo, CD-1 mice; details: mouse; for Propionate-d3 AUClast / Propionate-d3 Tmax: single oral dose: Propionate-d3 62 mg/kg, Compound 3-d12 110 mg/kg, Compound 6-d9 91 mg/kg
Procedure: as §1

[3] = test system: MIP-1α; assay: Neutrophil Chemokine Production Assay: MIP-1α; format: cell-based; details: human neutrophils, 12 h
Procedure: (§2) A volume 25 mL of human blood was layered over 15 mL of Histopaque®-1077 and centrifuged at 500 g, R^T, for 30 min with no break applied to the centrifuge. The PBMC band and Histopaque®-1077 layer were removed leaving behind the bottom red layer which was mixed with 40 mL of 1× red blood cell (RBC) lysis buffer (Sigma-Aldrich) was and split into two 50 mL tubes. The volume for both fractions was brought to 50 mL with RBC lysis buffer, mixed by inversion, and then incubated at RT for 10 min. Solutions were centrifuged at 250 g, for 10 min at RT and the supernatant liquids removed. The reddish pellets were re-suspended in 1 mL of RBC lysis buffer and combined. The cell suspension was incubated for 5 min at RT in RBC lysis buffer. After incubation 45 mL of Hanks Balanced Salt Solution with no calcium, magnesium or phenol red (HBSS—) was added, the cell suspension was spun (250 g for 10 min at RT), and supernatant liquids were removed. The white pellet was re-suspended in 1 mL of HBSS—, and cell counts were determined. The neutrophil cell suspension was brought to a concentration of 1.11e6 cells/mL in RPMI complete (Sigma-Aldrich), and 180 μL of cell suspension was transferred to all wells within a sterile 96-well tissue culture treated plate resulting in 2.0×10^5 cells/well. […] After incubation, 10 μL of 2 μg/mL LPS solution in RPMI complete was added to each well except for control wells, which received an additional 10 μL of media. Cells were incubated for 12 h (37° C., 5% CO2), after which plates were centrifuged at 250 g, RT, for 5 min and supernatant liquids were obtained and stored at −80° C. until analyzed via Luminex® Multiplex Assay for various chemokines and cytokines. Three data points were acquired from two different blood donors and averaged.

[4] = test system: IL-8; assay: Neutrophil Chemokine Production Assay: IL-8; format: cell-based; details: human neutrophils, 12 h
Procedure: as §2

[5] = test system: MIP-1β; assay: Neutrophil Chemokine Production Assay: MIP-1β; format: cell-based; details: human neutrophils, 12 h
Procedure: as §2

[6] = Stability of conjugates in Simulated Intestinal Fluid (SIF); format: in vitro ADME; details: SIF pH 6.7 with pancreatin, 37° C., 1 μM compound
Procedure, shortened: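 Compounds at 1 μM in fresh simulated intestinal fluid: FaSSIF powder in pH 6.7 phosphate buffer with pancreatin. Agitated at 37 °C; aliquots taken at T0 and regular intervals, quenched with 1 volume acetonitrile. Degradation rates determined by LC/MS.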

[7] = In vitro Colonic Material Stability Assay; format: in vitro ADME; details: colonic material slurry in YCFAC media, anaerobic, 1 or 10 μM
Procedure: Assay 3. In vitro Colonic Material Stability Assay. This assay was used to assess the stability of a conjugate in a large intestine. All experiments were performed in an anaerobic chamber containing 90% nitrogen, 5% hydrogen and 5% carbon dioxide. Colonic material was resuspended as a slurry (15% w/v final concentration) in pre-reduced, anaerobically sterilized dilution blanks (Anaerobe Systems AS-908). The colonic material was then inoculated into 96 well plates containing YCFAC media (Anaerobe Systems AS-680) or other suitable media (6.7 μL slurry into 1 mL total media). Compounds or groups of compounds were added to each individual well to reach a final analyte concentration of 1 or 10 μM, and the material was mixed by pipetting. Sample was removed after set timepoints (0, 120, 240, 480, 1440, 2880 minutes after initiation of the assay), quenched with acetonitrile containing internal standard, and analyzed by LC/MS.

[8] = Stability of conjugates in Simulated Gastric Fluid (SGF); format: in vitro ADME; details: SGF pH 1.6 with pepsin, 37° C., 1 μM compound
Procedure, shortened: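 Compound at 1 μM (from 1 mM DMSO stock) in pH 1.6 NaCl medium with FaSSIF powder and 0.1 mg/mL pepsin, mixed at 37° C. Aliquots quenched with equal volume acetonitrile at T0 and regular intervals; LC/MS gives degradation rate.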

MMF AUClast ([1]; Cecum): 297 nmol·h/g
MMF Tmax ([1]; Cecum): 2.00 h
MMF AUClast ([1]; Distal Colon): 568 nmol·h/g
MMF Tmax ([1]; Distal Colon): 4.00 h
MMF AUClast ([1]; Distal Intestine): 156 nmol·h/g
MMF Tmax ([1]; Distal Intestine): 1.00 h
MMF AUClast ([1]; Proximal Colon): 465 nmol·h/g
MMF Tmax ([1]; Proximal Colon): 2.00 h
MMF AUClast ([1]; Proximal Intestine): 56.4 nmol·h/g
MMF Tmax ([1]; Proximal Intestine): 0.50 h
MMF AUClast ([1]; Stomach): 3180 nmol·h/g
MMF Tmax ([1]; Stomach): 1.00 h
Propionate-d3 AUClast ([2]; Brain): 1.18 nmol·h/g
Propionate-d3 Tmax ([2]; Brain): 0.25 h
Propionate-d3 AUClast ([2]; Cecum): 4010 nmol·h/g
Propionate-d3 Tmax ([2]; Cecum): 2.00 h
Propionate-d3 AUClast ([2]; Distal Colon): 2310 nmol·h/g
Propionate-d3 Tmax ([2]; Distal Colon): 4.00 h
Propionate-d3 AUClast ([2]; Distal Intestine): 3880 nmol·h/g
Propionate-d3 Tmax ([2]; Distal Intestine): 1.00 h
Propionate-d3 AUClast ([2]; Proximal Colon): 2910 nmol·h/g
Propionate-d3 Tmax ([2]; Proximal Colon): 2.00 h
Propionate-d3 AUClast ([2]; Proximal Intestine): 3160 nmol·h/g
Propionate-d3 Tmax ([2]; Proximal Intestine): 0.25 h
Propionate-d3 AUClast ([2]; Stomach): 4950 nmol·h/g
Propionate-d3 Tmax ([2]; Stomach): 1.00 h
region where the highest concentrations (Cmax) of propionate-d3 were observed ([2]; single oral dose, GI tissues): intestines (proximal and distal)
Structure (SMILES): [2H]C([2H])([2H])CC(=O)OCC1OC(OC(=O)C=CC(=O)OC)C(OC(=O)CC([2H])([2H])[2H])C(OC(=O)CC([2H])([2H])[2H])C1OC(=O)CC([2H])([2H])[2H] (stereo not drawn) [Compound 3-d12]

Structure (SMILES): CC(O)CC(=O)O (stereo not drawn) [β-hydroxybutyric acid]
% MIP-1α (Vehicle + LPS = 100%) ([3]; Conc. 200.0 μM): − (− = >90% Vehicle)
% MIP-1α (Vehicle + LPS = 100%) ([3]; Conc. 2000.0 μM): ++ (++ = <70% Vehicle)
% IL-8 (Vehicle + LPS = 100%) ([4]; Conc. 200.0 μM): − (− = >90% Vehicle)
% IL-8 (Vehicle + LPS = 100%) ([4]; Conc. 2000.0 μM): + (+ = <90% Vehicle)
% MIP-1β (DMSO + LPS = 100%) ([5]; Conc. 200.0 μM): + (+ = <90% Vehicle)
% MIP-1β (DMSO + LPS = 100%) ([5]; Conc. 2000.0 μM): + (+ = <90% Vehicle)

Structure (SMILES): CCCC(=O)O[C@H]1O[C@H](COC(=O)/C=C/C(=O)OC)[C@@H](OC(=O)CCC)[C@H](OC(=O)CCC)[C@H]1OC(=O)CCC [Compound 40, 1-methyl 4-[(2R,3R,4S,5R,6R)-3,4,5,6-tetrakis(butanoyloxy)oxan-2-yl]methyl (2E)-but-2-enedioate]
Assay 2 (SIF) (% @ Remaining 4 hours) [6]: A (A: <25% of the tested compound remaining)
Assay 3 (% Remaining at 24 h) [7]: A (A: <25% of the tested compound remaining)
Assay 1 (SGF) (% Remaining @ 1 hour) [8]: B (B: 25-75% of the tested compound remaining)

Structure (SMILES): CCCC(=O)O[C@@H]1[C@@H](OC(=O)CCC)[C@H](C)O[C@H](OC(=O)/C=C/C(=O)OC)[C@@H]1OC(=O)CCC [Compound 14, Methyl ((2R,3R,4R,5S,6S)-3,4,5-tris(butyryloxy)-6-methyltetrahydro-2H-pyran-2-yl) fumarate]
Assay 2 (SIF) (% @ Remaining 4 hours) [6]: A (A: <25% of the tested compound remaining)
Assay 3 (% Remaining at 24 h) [7]: C (C: >75% of the tested compound remaining)
Assay 1 (SGF) (% Remaining @ 1 hour) [8]: C (C: >75% of the tested compound remaining)

Structure (SMILES): CCCC(=O)O[C@@H]1[C@@H](OC(=O)CCC)[C@H](OC(=O)/C=C/C(=O)OC)OC[C@H]1OC(=O)CCC [Compound 7, Methyl ((2S,3R,4S,5R)-3,4,5-tris(butyryloxy)tetrahydro-2H-pyran-2-yl) fumarate]
Assay 2 (SIF) (% @ Remaining 4 hours) [6]: A (A: <25% of the tested compound remaining)
Assay 3 (% Remaining at 24 h) [7]: C (C: >75% of the tested compound remaining)
Assay 1 (SGF) (% Remaining @ 1 hour) [8]: C (C: >75% of the tested compound remaining)

Structure (SMILES): CCCC(=O)OC[C@H]1O[C@@H](OC(=O)/C=C/C(=O)OC)[C@H](OC(=O)CCC)[C@@H](OC(=O)CCC)[C@@H]1OC(=O)CCC [Compound 10, Methyl ((2S,3R,4S,5R,6R)-3,4,5-tris(butyryloxy)-6-((butyryloxy)methyl)tetrahydro-2H-pyran-2-yl) fumarate]
Assay 2 (SIF) (% @ Remaining 4 hours) [6]: B (B: 25-75% of the tested compound remaining)
Assay 3 (% Remaining at 24 h) [7]: B (B: 25-75% of the tested compound remaining)
Assay 1 (SGF) (% Remaining @ 1 hour) [8]: B (B: 25-75% of the tested compound remaining)

Structure (SMILES): CCCC(=O)OC[C@H]1O[C@H](OC(=O)/C=C/C(=O)OC)[C@H](OC(=O)CCC)[C@@H](OC(=O)CCC)[C@@H]1OC(=O)CCC [Compound 11, Methyl ((2R,3R,4S,5R,6R)-3,4,5-tris(butyryloxy)-6-((butyryloxy)methyl)tetrahydro-2H-pyran-2-yl) fumarate]
Assay 2 (SIF) (% @ Remaining 4 hours) [6]: B (B: 25-75% of the tested compound remaining)
Assay 3 (% Remaining at 24 h) [7]: B (B: 25-75% of the tested compound remaining)
Assay 1 (SGF) (% Remaining @ 1 hour) [8]: B (B: 25-75% of the tested compound remaining)

Structure (SMILES): CCC(=O)OC[C@H]1O[C@H](OC(=O)/C=C/C(=O)OC)[C@H](OC(=O)CC)[C@@H](OC(=O)CC)[C@@H]1OC(=O)CC [Compound 4, Methyl ((2R,3R,4S,5R,6R)-3,4,5-tris(propionyloxy)-6-((propionyloxy)methyl)tetrahydro-2H-pyran-2-yl) fumarate]
Assay 2 (SIF) (% @ Remaining 4 hours) [6]: C (C: >75% of the tested compound remaining)
Assay 3 (% Remaining at 24 h) [7]: B (B: 25-75% of the tested compound remaining)
Assay 1 (SGF) (% Remaining @ 1 hour) [8]: B (B: 25-75% of the tested compound remaining)

Structure (SMILES): CCCC(=O)O[C@@H]1[C@@H](OC(=O)CCC)[C@H](OC(=O)/C=C/C(=O)OC)O[C@H](CO)[C@H]1OC(=O)CCC [Compound 38, 1-methyl (2S,3R,4S,5R,6R)-3,4,5-tris(butanoyloxy)-6-(hydroxymethyl)oxan-2-yl (2E)-but-2-enedioate]
Assay 2 (SIF) (% @ Remaining 4 hours) [6]: A (A: <25% of the tested compound remaining)
Assay 3 (% Remaining at 24 h) [7]: A (A: <25% of the tested compound remaining)
Assay 1 (SGF) (% Remaining @ 1 hour) [8]: C (C: >75% of the tested compound remaining)
